Test results published in PMC8887546, “Design and Synthesis of Brain Penetrant Glycopeptide Analogues of PACAP With Neuroprotective Potential for Traumatic Brain Injury and Parkinsonism” (Frontiers in drug discovery, 2022).

What was measured:
[1] = test system: Sprague Dawley rats, 6-OHDA lesion; assay: Amphetamine-induced rotations, mild 6-OHDA hemi-parkinsonian rat model (study 1); format: in vivo; settings: mild lesion (25%), 15 mg/kg i.p. 6 h prior to and 24 h post-lesion, 2 + 4 weeks, vs vehicle
Experimental: Rats were treated with 2LS98Lac or saline (vehicle) as outlined in the Schemes in Figures 9A,B via intraperitoneal (i.p.) injection (15 mg/kg). All animals were made hemi-parkinsonian with unilateral, striatal 6-hydroxydopamine (Sigma Aldrich, St. Louis, MO) injections. After surgery, behavioral assessments were done at 2- and 4-weeks post-surgery. 24 h after the last test animals were either euthanized and whole brains were harvested for future biochemical analysis or perfused and brains collected for immunohistochemistry and stereological assessment of tyrosine hydroxylase-positive (TH+) cells remaining in the SNc. In study 1: n = 16 each group were included, and all underwent the behavioral analysis: n = 16, and for the stereology in the SNc, n = 8 each group was used. […]
In order to pharmacologically assess the degree of dopaminergic (DA) depletion in the lesioned side, animals were given amphetamine, an indirectly acting DA agonist and placed into a plexiglass cylinder (38 cm tall × 38 cm across) enclosed in an open field box ([Yue et al., 2011]). Dextro-amphetamine in sterile 0.9% saline (Sigma-Aldrich) was injected i.p. at 5 mg/kg, and rotations were recorded from above using Logitech HD web cameras connected to an Acer Aspire SWS-015 computer. An observer blinded to the groups counted rotations in both the ipsilateral and contralateral rotations for the entire 70 min period. […]

[2] = test system: C57BL/6 mice, diffuse TBI; assay: Rotarod after TBI; format: in vivo, mouse; settings: 10 mg/kg i.p. 30 min prior to TBI, 2, 5 and 7 DPI
Experimental: 30 min prior to TBI or sham injury, mice were randomly assigned to a therapeutic group and received an intraperitoneal injection of 2LS80Mel (10 mg/kg) or sterile saline (0.25 ml). Groups were as follows: TBI-2LS80Mel n = 17; TBI-vehicle n = 17; sham n = 22 (vehicle n = 11, 2LS80Mel n = 11).
For injury induction 24 h post-surgery, mice were re-anesthetized with 5% isoflurane delivered for 3 min. The cap was removed from the injury-hub assembly and the dura was visually inspected through the hub to ensure it was intact with no debris. […] Injured mice were monitored for presence of a forearm fencing response and righting reflex times were recorded as indicators of injury severity ([Hosseini and Lifshitz, 2009]). […] After spontaneously righting, mice were placed in a heated recovery cage and monitored until they were ambulatory (approximately 5–15 min) before being returned to their piezoelectric sleep cage (see below). […]
Sensorimotor function was assessed using the Rotor-Rod system (San Diego Instruments) as we have previously published ([Rowe et al., 2018]). […] Following acclimation, mice were trained over three consecutive days prior to surgery/injury and the last training session was recorded as baseline. […]

| SMILES | Cumulative contralateral amphetamine-induced rotations [1] | Rotarod latency to fall [2] |
| --- | --- | --- |
| [2H]C([2H])([2H])C([2H])(C([2H])([2H])[2H])[C@]([2H])(NC(=O)[C@H](C)NC(=O)[C@H](C)NC(=O)[C@H](CC(C)C)NC(=O)[C@H](Cc1ccc(O)cc1)NC(=O)[C@H](CCCCN)NC(=O)[C@H](CCCCN)NC(=O)[C@@]([2H])(NC(=O)[C@H](C)NC(=O)[C@H](CC(C)C)NC(=O)[C@H](CCC(N)=O)NC(=O)[C@H](CCCCN)NC(=O)[C@H](CCCNC(=N)N)NC(=O)[C@H](Cc1ccc(O)cc1)NC(=O)[C@H](CCCNC(=N)N)NC(=O)[C@H](CO)NC(=O)[C@H](Cc1ccc(O)cc1)NC(=O)[C@H](CO)NC(=O)[C@H](CC(=O)O)NC(=O)[C@@H](NC(=O)[C@H](Cc1ccccc1)NC(=O)[C@@H](NC(=O)CNC(=O)[C@H](CC(=O)O)NC(=O)[C@H](CO)NC(=O)[C@@H](N)Cc1c[nH]cn1)[C@@H](C)CC)[C@@H](C)O)C([2H])(C([2H])([2H])[2H])C([2H])([2H])[2H])C(=O)N[C@@H](CC(C)C)C(=O)N[C@@H](CO[C@@H]1O[C@H](CO)[C@@H](O[C@@H]2O[C@H](CO)[C@H](O)[C@H](O)[C@H]2O)[C@H](O)[C@H]1O)C(N)=O [Compound 2LS98Lac] | significantly decreased |  |
| CC[C@H](C)[C@H](NC(=O)CNC(=O)[C@H](CC(=O)O)NC(=O)[C@H](CO)NC(=O)[C@@H](N)Cc1c[nH]cn1)C(=O)N[C@@H](Cc1ccccc1)C(=O)N[C@H](C(=O)N[C@@H](CC(=O)O)C(=O)N[C@@H](CO)C(=O)N[C@@H](Cc1ccc(O)cc1)C(=O)N[C@@H](CO)C(=O)N[C@@H](CCCNC(=N)N)C(=O)N[C@@H](Cc1ccc(O)cc1)C(=O)N[C@@H](CCCNC(=N)N)C(=O)N[C@@H](CCCCN)C(=O)N[C@@H](CCC(N)=O)C(=O)N[C@@H](CC(C)C)C(=O)N[C@@H](C)C(=O)N[C@H](C(=O)N[C@@H](CCCCN)C(=O)N[C@@H](CCCCN)C(=O)N[C@@H](Cc1ccc(O)cc1)C(=O)N[C@@H](CC(C)C)C(=O)N[C@@H](C)C(=O)N[C@@H](C)C(=O)N[C@H](C(=O)N[C@@H](CC(C)C)C(=O)N[C@@H](CO[C@@H]1O[C@H](CO[C@H]2O[C@H](CO)[C@H](O)[C@H](O)[C@H]2O)[C@@H](O)[C@H](O)[C@H]1O)C(N)=O)C(C)C)C(C)C)[C@@H](C)O [Compound 2LS80Mel] |  | comparable to uninjured shams at all time points post-injury |
